Assay results taken from patent US8003312B2, “Multiplex cellular assays using detectable cell barcodes” (The Board of Trustees of the Leland Stanford Junior …, priority 2007, dated 2011).

Experiments:
Format in all cases: cell-based, human
[1] = system: Stat1 and ERK phosphorylation; experiment: Titration of four screening hits in Jurkat cells using six-sample FCB (pStat1, pERK); conditions: 30 min before IFN-γ (10 ng/ml) and anti-CD3/28 (5 μg/ml each)
Method: FIG. 8. Detailed titration of four hits from Jurkat drug screening experiment (FIG. 5). a) Four compounds: Bay11-7082, Indirubin-3-monoxime, PP2, and ZM449829 were added to Jurkat cells at different concentrations for 30 min prior to stimulation with IFN-γ (10 ng/ml) and anti-CD3/28 (5 μg/ml each). The cells were fixed and permeabilized, then stained with pStat1 Ax647 and pERK Ax488 antibodies. Percent inhibition of phosphorylation was plotted against concentration of drugs and fitted with a logistic regression curve to obtain IC50 values. Numbers in the top right of each plot are the IC50 value in μM units. b) Lysates were prepared from the same cells used for phospho flow and analyzed by western blot with pStat1 and pERK antibodies. Drugs were applied at 20 μM (same concentration as initial screen) for western blot analysis.
Because a few of these hits were unexpected, we performed titration experiments using six-sample FCB on four of the compounds to validate the results (FIG. 8).
We calculated fold change of phosphorylation upon stimulation by dividing median fluorescence intensity (MFI) of stimulated samples by the MFI of unstimulated samples: FC=MFIstim/MFIunstim. For heat map analysis, FC was converted to log2 values to enhance visualization and so that samples showing no change have a value of zero. To measure drug activity, we calculated percent inhibition as follows: Percent Inhibition=1−((MFItreated ? MFIunstim)/(MFIstim ? MFIunstim)), where “treated” denotes drug treated (and stimulated) samples, “stim” denotes control stimulated (non drug treated) samples, and “unstim” denotes control unstimulated (non drug treated) samples. We calculated Z′-factor from control stimulated and unstimulated samples by the following: Z′-factor=1 ? ((3[…]SDstim 3[…]SDunstim)/(meanstim ? meanunstim)), where “SD” denotes standard deviation of the mean, and “mean” denotes the mean of either stimulated or unstimulated MFI values. Z′-factor is an indication of the robustness and suitability of an assay for high throughput screening, with values from 0.5 to 1 indicating an excellent assay, 0 to 0.5 indicating a usable assay, and less than 0 indicating the assay has too much noise or inadequate dynamic range.

ERK phosphorylation = experiment: 96-well FCB drug screen in Jurkat cells: T-cell receptor-mediated ERK phosphorylation; conditions: 20 μM, 45 min before stimulation with anti-CD3, anti-CD28 and IFN-γ for 5 min
Method: (§1) FIG. 5. Use of FCB in drug screening platforms. […] (a) Layout of screening experiment. Jurkat cells were treated with 70 known small-molecule kinase or phosphatase inhibitors (20 μM), Jak inhibitor I (2 μM) or U0126 (20 μM) for 45 min before stimulation with 5 μg/ml anti-CD3 and anti-CD28 and 10 ng/ml IFN-γ for 5 min. (b) FCB setup for barcoding of 96-well plate. After fixation, cells were barcoded with Alexa 700-NHS (0, 0.06, 0.25 or 1 μg/ml) to delineate the four quadrants of the 96-well plate. Each quadrant was subdivided into four rows labeled with Pacific Blue-NHS (0, 0.04, 0.2 or 1 μg/ml) and six columns labeled with Alexa 488-NHS (0, 0.02, 0.06, 0.18, 0.5 or 1.5 μg/ml). Shown are pseudocolor FACS plots of the actual gating scheme used to deconvolute the samples in quadrant 4, row D (bottom right six samples in the plate). […] Wells with black triangles were excluded from the analysis due to high fluorescence of the drug in the phospho-protein fluorescence channels. Colored squares are drawn over wells analyzed in d. […]
(§2) Because most cell-based high-throughput screens use 96-well microtiter plates, we next addressed the question whether the technique could be adapted to a 96-well plate. […] We also calculated the Z′ factor from these samples, and it was 0.71 for Stat1 and 0.69 for ERK, indicating robust assay performance. […]

Stat1 phosphorylation = experiment: 96-well FCB drug screen in Jurkat cells: Stat1 phosphorylation induced by IFN-γ; conditions: 20 μM, 45 min before stimulation with anti-CD3, anti-CD28 and IFN-γ for 5 min
Method: as §1, §2

## Cc1ccc(S(=O)(=O)/C=C/C#N)cc1 [Bay11-7082]
[1]
  selectivity between ERK and Stat1 phosphorylation: little selectivity
ERK phosphorylation
  inhibition of ERK phosphorylation: 50%
Stat1 phosphorylation
  inhibition of Stat1 phosphorylation: inhibited Stat1 phosphorylation potently
